# Source: US20150283092A1, “DRUG DELIVERY COMPOSITION” (Alkermes Pharma Ireland Limited, priority 2009, published 2015)
# Like-named read-outs stand apart in the source and are kept apart here.
# Assays:
# [1] = Dissolution of tacrolimus compositions in 0.005% HPC, pH 4.5, USP <711> apparatus I, baskets at 100 rpm; format: physicochemical
# Procedure: Compositions A, B, and C were placed in 0.005% HPC, pH 4.5 according to USP <711>, apparatus I (2009), Baskets at 100 rpm (the dissolution vehicle). As an example of the different release profiles for the three compositions, the amount of medicament released from composition A was 92.07% at 120 min. The amount of medicament released from composition B was less than 10% at 360 min (excluded from graph due to scale). The amount of medicament released from Composition C was 43.55% at 120 min.
# [2] = cited from earlier work
native solubility of tacrolimus in this dissolution vehicle [1],SMILES,pka value ([2]; first of two printed pka values),pka value ([2]; second of two printed pka values)
approximately 43 % dissolved,C=CC[C@@H]1/C=C(\C)C[C@H](C)C[C@H](OC)[C@H]2O[C@@](O)(C(=O)C(=O)N3CCCC[C@H]3C(=O)O[C@H](/C(C)=C/[C@@H]3CC[C@@H](O)[C@H](OC)C3)[C@H](C)[C@@H](O)CC1=O)[C@H](C)C[C@@H]2OC [tacrolimus],–,–
–,CN1CCN(C2=Nc3cc(Cl)ccc3Nc3ccccc32)CC1 [clozapine],3.98,7.62
